Tested on: NF-κB signaling pathway in MT373 tumors
Assay: MT373 syngeneic sarcoma model: mouse NF-κB signaling pathway profiling panel
Format: in vivo

CCn1c(C#CCNc2ccccc2)cc2cc(CNC3CCN(C)CC3)ccc21 [Compound 1, 1-Anilino-3-{1-ethyl-5-[(1-methyl-4-piperidylamino)methyl]-1H-indol-2-yl}-2-propyne]
Bcl2a1a fold increase over or percent reduction vs vehicle control (150 mg/kg BIDx1, 48 h): 67.64 ± 10.73 fold or %
Bcl2l1 fold increase over or percent reduction vs vehicle control (150 mg/kg BIDx1, 48 h): 7.49 ± 1.18 fold or %
Bcl3 fold increase over or percent reduction vs vehicle control (150 mg/kg BIDx1, 48 h): 1.35 ± 0.16 fold or %
Bcl10 fold increase over or percent reduction vs vehicle control (150 mg/kg BIDx1, 48 h): 36.06 ± 3.54 fold or %
Birc3 fold increase over or percent reduction vs vehicle control (150 mg/kg BIDx1, 48 h): 1.20 ± 0.28 fold or %
Card10 fold increase over or percent reduction vs vehicle control (150 mg/kg BIDx1, 48 h): 1.20 ± 0.11 fold or %
Card11 fold increase over or percent reduction vs vehicle control (150 mg/kg BIDx1, 48 h): 1.67 ± 0.42 fold or %
Casp1 fold increase over or percent reduction vs vehicle control (150 mg/kg BIDx1, 48 h): 10.29 ± 10.66 fold or %
Casp8 fold increase over or percent reduction vs vehicle control (150 mg/kg BIDx1, 48 h): 1.02 ± 0.01 fold or %
Ccl2 fold increase over or percent reduction vs vehicle control (150 mg/kg BIDx1, 48 h): 67.28 ± 5.26 fold or %
Ccl5 fold increase over or percent reduction vs vehicle control (150 mg/kg BIDx1, 48 h): 8.18 ± 19.38 fold or %
Cd27 fold increase over or percent reduction vs vehicle control (150 mg/kg BIDx1, 48 h): 1.46 ± 0.26 fold or %
Cd40 fold increase over or percent reduction vs vehicle control (150 mg/kg BIDx1, 48 h): 39.20 ± 14.39 fold or %
Cflar fold increase over or percent reduction vs vehicle control (150 mg/kg BIDx1, 48 h): 7.92 ± 8.21 fold or %
Chuk fold increase over or percent reduction vs vehicle control (150 mg/kg BIDx1, 48 h): 4.04 ± 12.31 fold or %
Crebbp fold increase over or percent reduction vs vehicle control (150 mg/kg BIDx1, 48 h): 1.12 ± 0.05 fold or %
Csf1 fold increase over or percent reduction vs vehicle control (150 mg/kg BIDx1, 48 h): 11.36 ± 7.30 fold or %
Csf2 fold increase over or percent reduction vs vehicle control (150 mg/kg BIDx1, 48 h): 62.24 ± 8.70 fold or %
Csf3 fold increase over or percent reduction vs vehicle control (150 mg/kg BIDx1, 48 h): 0.37 ± 11.46 fold or %
Egfr fold increase over or percent reduction vs vehicle control (150 mg/kg BIDx1, 48 h): 24.42 ± 4.76 fold or %
Egr1 fold increase over or percent reduction vs vehicle control (150 mg/kg BIDx1, 48 h): 42.64 ± 12.12 fold or %
Eif2ak2 fold increase over or percent reduction vs vehicle control (150 mg/kg BIDx1, 48 h): 1.01 ± 0.03 fold or %
Elk1 fold increase over or percent reduction vs vehicle control (150 mg/kg BIDx1, 48 h): 11.87 ± 8.21 fold or %
F2r fold increase over or percent reduction vs vehicle control (150 mg/kg BIDx1, 48 h): 19.79 ± 4.23 fold or %
Fadd fold increase over or percent reduction vs vehicle control (150 mg/kg BIDx1, 48 h): 7.23 ± 4.56 fold or %
Fasl fold increase over or percent reduction vs vehicle control (150 mg/kg BIDx1, 48 h): 5.96 ± 19.38 fold or %
Fos fold increase over or percent reduction vs vehicle control (150 mg/kg BIDx1, 48 h): 47.30 ± 7.08 fold or %
Hmox1 fold increase over or percent reduction vs vehicle control (150 mg/kg BIDx1, 48 h): 27.03 ± 7.50 fold or %
Icam1 fold increase over or percent reduction vs vehicle control (150 mg/kg BIDx1, 48 h): 3.83 ± 17.26 fold or %
Ifng fold increase over or percent reduction vs vehicle control (150 mg/kg BIDx1, 48 h): 43.46 ± 15.02 fold or %
Ikbkb fold increase over or percent reduction vs vehicle control (150 mg/kg BIDx1, 48 h): 1.24 ± 0.09 fold or %
Ikbke fold increase over or percent reduction vs vehicle control (150 mg/kg BIDx1, 48 h): 1.71 ± 28.42 fold or %
Ikbkg fold increase over or percent reduction vs vehicle control (150 mg/kg BIDx1, 48 h): 3.73 ± 5.88 fold or %
Il1a fold increase over or percent reduction vs vehicle control (150 mg/kg BIDx1, 48 h): 28.88 ± 7.08 fold or %
Il1b fold increase over or percent reduction vs vehicle control (150 mg/kg BIDx1, 48 h): 18.73 ± 5.15 fold or %
Il1r1 fold increase over or percent reduction vs vehicle control (150 mg/kg BIDx1, 48 h): 22.37 ± 5.01 fold or %
Il10 fold increase over or percent reduction vs vehicle control (150 mg/kg BIDx1, 48 h): 1.15 ± 0.09 fold or %
Irak1 fold increase over or percent reduction vs vehicle control (150 mg/kg BIDx1, 48 h): 1.00 ± 2.36 fold or %
Irak2 fold increase over or percent reduction vs vehicle control (150 mg/kg BIDx1, 48 h): 17.08 ± 1.54 fold or %
Irf1 fold increase over or percent reduction vs vehicle control (150 mg/kg BIDx1, 48 h): 7.15 ± 7.58 fold or %
Jun fold increase over or percent reduction vs vehicle control (150 mg/kg BIDx1, 48 h): 44.92 ± 3.26 fold or %
Lta fold increase over or percent reduction vs vehicle control (150 mg/kg BIDx1, 48 h): 57.16 ± 12.86 fold or %
Ltbr fold increase over or percent reduction vs vehicle control (150 mg/kg BIDx1, 48 h): 13.21 ± 2.85 fold or %
Map3k1 fold increase over or percent reduction vs vehicle control (150 mg/kg BIDx1, 48 h): 1.74 ± 0.24 fold or %
Mapk3 fold increase over or percent reduction vs vehicle control (150 mg/kg BIDx1, 48 h): 3.13 ± 7.94 fold or %
Myd88 fold increase over or percent reduction vs vehicle control (150 mg/kg BIDx1, 48 h): 1.17 ± 0.06 fold or %
Nfkb1 fold increase over or percent reduction vs vehicle control (150 mg/kg BIDx1, 48 h): 1.04 ± 0.04 fold or %
Nfkb2 fold increase over or percent reduction vs vehicle control (150 mg/kg BIDx1, 48 h): 1.17 ± 0.11 fold or %
Nfkbia fold increase over or percent reduction vs vehicle control (150 mg/kg BIDx1, 48 h): 1.14 ± 0.15 fold or %
Nod1 fold increase over or percent reduction vs vehicle control (150 mg/kg BIDx1, 48 h): 1.49 ± 0.08 fold or %
Raf1 fold increase over or percent reduction vs vehicle control (150 mg/kg BIDx1, 48 h): 0.48 ± 5.31 fold or %
Rel fold increase over or percent reduction vs vehicle control (150 mg/kg BIDx1, 48 h): 1.30 ± 0.16 fold or %
Rela fold increase over or percent reduction vs vehicle control (150 mg/kg BIDx1, 48 h): 1.07 ± 0.01 fold or %
Relb fold increase over or percent reduction vs vehicle control (150 mg/kg BIDx1, 48 h): 1.09 ± 0.07 fold or %
Ripk1 fold increase over or percent reduction vs vehicle control (150 mg/kg BIDx1, 48 h): 1.19 ± 0.07 fold or %
Ripk2 fold increase over or percent reduction vs vehicle control (150 mg/kg BIDx1, 48 h): 24.29 ± 6.23 fold or %
Slc20a1 fold increase over or percent reduction vs vehicle control (150 mg/kg BIDx1, 48 h): 40.28 ± 6.82 fold or %
Smad3 fold increase over or percent reduction vs vehicle control (150 mg/kg BIDx1, 48 h): 1.04 ± 0.08 fold or %
Stat1 fold increase over or percent reduction vs vehicle control (150 mg/kg BIDx1, 48 h): 1.36 ± 0.15 fold or %
Tbk1 fold increase over or percent reduction vs vehicle control (150 mg/kg BIDx1, 48 h): 1.01 ± 6.05 fold or %
Tlr1 fold increase over or percent reduction vs vehicle control (150 mg/kg BIDx1, 48 h): 1.63 ± 0.28 fold or %
Tlr2 fold increase over or percent reduction vs vehicle control (150 mg/kg BIDx1, 48 h): 1.24 ± 0.15 fold or %
Tlr3 fold increase over or percent reduction vs vehicle control (150 mg/kg BIDx1, 48 h): 1.00 ± 1.44 fold or %
Tlr4 fold increase over or percent reduction vs vehicle control (150 mg/kg BIDx1, 48 h): 6.31 ± 9.66 fold or %
Tlr6 fold increase over or percent reduction vs vehicle control (150 mg/kg BIDx1, 48 h): 1.33 ± 0.08 fold or %
Tlr9 fold increase over or percent reduction vs vehicle control (150 mg/kg BIDx1, 48 h): 1.92 ± 0.29 fold or %
Tnf fold increase over or percent reduction vs vehicle control (150 mg/kg BIDx1, 48 h): 56.86 ± 13.49 fold or %
Tnfaip3 fold increase over or percent reduction vs vehicle control (150 mg/kg BIDx1, 48 h): 1.26 ± 0.33 fold or %
Tnfrsf1a fold increase over or percent reduction vs vehicle control (150 mg/kg BIDx1, 48 h): 1.35 ± 0.08 fold or %
Tnfrsf1b fold increase over or percent reduction vs vehicle control (150 mg/kg BIDx1, 48 h): 1.66 ± 0.08 fold or %
Tnfrsf10b fold increase over or percent reduction vs vehicle control (150 mg/kg BIDx1, 48 h): 11.34 ± 5.36 fold or %
Tnfsf10 fold increase over or percent reduction vs vehicle control (150 mg/kg BIDx1, 48 h): 16.58 ± 3.82 fold or %
Tnfsf14 fold increase over or percent reduction vs vehicle control (150 mg/kg BIDx1, 48 h): 1.53 ± 0.40 fold or %
Tollip fold increase over or percent reduction vs vehicle control (150 mg/kg BIDx1, 48 h): 2.45 ± 1.53 fold or %
Tradd fold increase over or percent reduction vs vehicle control (150 mg/kg BIDx1, 48 h): 1.01 ± 0.06 fold or %
Traf2 fold increase over or percent reduction vs vehicle control (150 mg/kg BIDx1, 48 h): 7.23 ± 7.66 fold or %
Traf3 fold increase over or percent reduction vs vehicle control (150 mg/kg BIDx1, 48 h): 13.20 ± 10.35 fold or %
Traf5 fold increase over or percent reduction vs vehicle control (150 mg/kg BIDx1, 48 h): 2.99 ± 3.31 fold or %
Traf6 fold increase over or percent reduction vs vehicle control (150 mg/kg BIDx1, 48 h): 1.07 ± 0.12 fold or %
Zap70 fold increase over or percent reduction vs vehicle control (150 mg/kg BIDx1, 48 h): 1.45 ± 0.41 fold or %
Agt fold increase over or percent reduction vs vehicle control (150 mg/kg BIDx1, 72 h): 2.05 ± 0.66 fold or %
Akt1 fold increase over or percent reduction vs vehicle control (150 mg/kg BIDx1, 72 h): 1.06 ± 0.07 fold or %
Atf1 fold increase over or percent reduction vs vehicle control (150 mg/kg BIDx1, 72 h): 34.00 ± 7.86 fold or %
Atf2 fold increase over or percent reduction vs vehicle control (150 mg/kg BIDx1, 72 h): 8.53 ± 13.61 fold or %
Bcl2a1a fold increase over or percent reduction vs vehicle control (150 mg/kg BIDx1, 72 h): 48.45 ± 28.65 fold or %
Bcl2l1 fold increase over or percent reduction vs vehicle control (150 mg/kg BIDx1, 72 h): 1.06 ± 0.18 fold or %
Bcl3 fold increase over or percent reduction vs vehicle control (150 mg/kg BIDx1, 72 h): 1.22 ± 0.24 fold or %
Bcl10 fold increase over or percent reduction vs vehicle control (150 mg/kg BIDx1, 72 h): 23.25 ± 7.71 fold or %
Birc3 fold increase over or percent reduction vs vehicle control (150 mg/kg BIDx1, 72 h): 1.13 ± 0.28 fold or %
